From patent US4983601A, “Benzo(b)pyrrolobenzodiazepines” (Hoechst-Roussel Pharmaceutical Inc., priority 1989, dated 1991)

Tested on: phenyl-para-quinone induced writhes
Test: phenyl-para-quinone writhing assay in mice (analgetic activity)
Format: in vivo
Details: screening dose of 20 mg/kg, subcutaneous (sc)
Method: Exptl. Biol. Med., 95, 729 ([…])]. Presented in the Table is the analgetic activity of representative compounds of the invention and a standard, expressed as the estimated subcutaneous dose at which the mice experience a 50% reduction in phenyl-para-quinone induced writhes, i.e., the ED50 -value, or the percent inhibition of writhing caused by a screening dose of 20 mg/kg of body weight administered subcutaneously (sc).

Going from `O=c1n(CCc2ccccc2)nc2n1-c1ccccc1N1CCc3cccc-2c31` [1,2-Dihydro-7-(2-phenylethyl)benzo[b]pyrrolo[3,2,1-jk][1,2,4]triazolo[4,3-d][1,4]benzodiazepin-8(7H)-one] to `O=c1n(CCCc2noc3cc(F)ccc23)nc2n1-c1cc(Br)ccc1N1CCc3cccc-2c31` [11-Bromo-1,2-dihydro-7-[3-(6-fluoro-1,2-benzisoxazol-3-yl)-1-propyl]benzo[b]pyrrolo[3,2,1-jk][1,2,4]triazolo[4,3-d][1,4]benzodiazepin-8(7H)-one], the “Analgetic Activity, percent inhibition of writhing” value falls from 62% to 54%.

Compared with `Cc1ccc2c(c1)n1c(CN(C)C)nnc1c1cccc3ccn2c31` [11-Methyl-8-(dimethylamino)methylbenzo[b]pyrrolo[3,2,1-jk][1,2,4]triazolo[4,3-d][1,4]benzodiazepine], `Brc1ccc2c(c1)-n1nnnc1-c1cccc3c1N2CC3` [11-Bromo-1,2-dihydrobenzo[b]pyrrolo[3,2,1-jk]tetrazolo[1,5-d][1,4]benzodiazepine] is lower in “Analgetic Activity, percent inhibition of writhing” value: 57% for the first, 56% for the second.

Same assay, conditions: subcutaneous (sc)

`CN(C)Cc1nnc2n1-c1cc(Br)ccc1N1CCc3cccc-2c31` [11-Bromo-1,2-dihydro-8-(dimethylamino)methylbenzo[b]pyrrolo[3,2,1-jk][1,2,4]triazolo[4,3-d][1,4]benzodiazepine] and `CCC(=O)O[C@](Cc1ccccc1)(c1ccccc1)[C@H](C)CN(C)C` [propoxyphene, reference compound] are within 1.5-fold of each other in “Analgetic Activity, ED50 (estimated subcutaneous dose at which the mice experience a 50% reduction in phenyl-para-quinone induced writhes)” value: 3.55 mg/kg for the first, 3.9 mg/kg for the second.
